Structures can show the parent of a compound that is named as a salt.
What was measured:
[1] = molecular target: T1, human histamine H1 receptor (hH1R) (Homo sapiens, UniProt P35367); assay: hH1R radioligand binding ([3H]mepyramine); details: read-out: hH1R (Ki [nM] x̅ [CI 95%]); HEK293T cells; n = 3, triplicate
T1 construct: SP (signal peptide) (N); FLAG (N); expressed in transfected cells
Procedure: (§1) To check the selectivity profile of our lead structures, radioligand binding studies at other histamine receptor subtypes were carried out. […] Obtained results clearly indicate the high selectivity of the tested derivatives toward human H3R (Table 3).
(§2) Compounds (as oxalate salts) were tested in H3R in vitro binding studies using the methods described previously.[21]−[23] […] Radioligand binding experiments at the H1R, H2R, and H4R were performed as previously described in Rosier et al.[65] and Bartole et al.[66] […] Data represent mean values ± CI from three independent experiments, each performed in triplicate. The normalized competition binding curves were then fitted with a four-parameter logistic fit yielding IC50 values using the Prism 8.4.3 software (GraphPad, San Diego, CA). The Ki values were estimated from the Cheng–Prusoff equation.[69]

[2] = molecular target: T2, sigma-2 receptor (σ2R) (Rattus norvegicus, UniProt Q5U3Y7); assay: σ2R radioligand binding ([3H]DTG); details: read-out: σ2R Ki [nM] x̄ [CI 95%]; mean [CI 95%]
T2 construct: The thawed membrane preparation of rat liver was incubated; from tissue; host or cells: Sprague-Dawley rat liver membranes
T2 sequence (Q5U3Y7 1-176): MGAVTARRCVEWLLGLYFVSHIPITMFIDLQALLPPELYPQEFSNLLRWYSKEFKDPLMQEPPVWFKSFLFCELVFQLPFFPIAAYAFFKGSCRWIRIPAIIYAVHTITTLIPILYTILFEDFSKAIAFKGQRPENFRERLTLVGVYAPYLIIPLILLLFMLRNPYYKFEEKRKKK

[3] = molecular target: T3, human histamine H2 receptor (hH2R) (Homo sapiens, UniProt P25021); assay: hH2R radioligand binding ([3H]UR-DE257); details: HEK293T cells; n = 3, triplicate
T3 construct: SP (signal peptide) (N); FLAG (N); expressed in transfected cells
Procedure: as §1, §2

[4] = system: CCI-exposed mice; assay: chronic constriction injury (CCI) of the sciatic nerve, von Frey test; type: in vivo, male albino Swiss CD-1 mice
Procedure: Behavioral assessment of 12 was performed 14 days after the sciatic nerve injury. Mice were randomly assigned to four treatment groups: vehicle-treated (i.p.) and 12-treated (5, 10, and 15 mg/kg, i.p.). Baseline measurements (basal) for all tests were performed before compound injections, and the results are presented as percentages of the maximal possible effect (% MPE). We observed a significant effect of the tested compound in the von Frey test at all tested time points (30 min: F(3, 26) = 12.38, p < 0,0001; 90 min: F(3, 26) = 12.65, p < 0.0001; 180 min: F(3, 26) = 6.464, p = 0.0020). […] We also observed a significant effect of treatment on the contralateral paw 90 min after injection (F(3, 26) = 5.741, p = 0.0037).
The model of chronic constriction injury (CCI) to the sciatic nerve was established according to Bennett and Xie.[94] The surgical method was performed under isoflurate anesthesia (2% isoflurane in 100% oxygen with a flow of 1.5 L/min).[95] Below the right hipbone, a small incision was performed, and three ligatures (4/0 silk) around the sciatic nerve were made (with 1 mm spacing) until a brief twitch in the respective hind limb was observed. All mice that underwent the CCI procedure developed hypersensitivity to mechanical and thermal stimuli. Behavioral tests were performed at day 14 after injury. Compound 12 was dissolved in 10% DMSO/10% (2-hydroxypropyl)-β-cyclodextrin/water and administered i.p. at doses 5, 10, and 15 mg/kg (injection volume 10 mL/kg of body weight). The control group received the vehicle (10% DMSO/10% (2-hydroxypropyl)-β-cyclodextrin/water).
Behavioral experiments were performed between 8:00 a.m. and 2:00 p.m. Across the experiments, we compared vehicle-treated mice with 12-treated animals. Experiments were performed 30, 90, and 180 min (von Frey test); 35, 95, and 185 min (cold plate test); and 40, 100, and 190 min (tail flick test) after the vehicle or 12 administration.
The von Frey test was used to measure mechanical hypersensitivity as described in a previous publication.[95] The animals were placed in cages with a wire net floor. The reaction (paw withdrawal, shaking, or licking) of the ipsilateral (Figure 15) and contralateral (Figure S33) paw of CCI-exposed mice to the mechanical stimulator (calibrated nylon monofilaments (0.6–6 g; Stoelting)) in serial increments was observed.

[5] = molecular target: T4, human histamine H4 receptor (hH4R) (Homo sapiens, UniProt Q9H3N8); assay: hH4R radioligand binding ([3H]UR-PI294); details: read-out: hH4R (Ki [nM] x̅ [CI 95%]); HEK293T cells; n = 3, triplicate
T4 construct: SP (signal peptide) (N); FLAG (N); expressed in transfected cells
Procedure: as §1, §2

[6] = system: mice; assay: capsaicin-induced nociception; type: in vivo
Procedure: The procedure used was similar to that described previously.[88],[89] The pain reaction was induced by the injection of 20 μL of capsaicin solution (1.6 μg/paw made in PBS) under the skin of the dorsal surface of the mice right hindpaw. The animals were observed individually in an observation chamber for 5 min following capsaicin injection. The amount of time spent licking the injected paw was recorded by means of the stopwatch and was considered as indicative of pain. The animals were pretreated with the vehicle (10 mL/kg, negative control) and investigated compound (10, 15, and 30 mg/kg).

[7] = system: mice; assay: formalin test; type: in vivo; details: Mus musculus, ip
Description: The formalin test is one of the most useful screening models for testing potentially clinically relevant antinociceptive molecules because of its ease of administration, standardization, and validation with reference drugs.[50] The subcutaneous injection of formalin results in a focal injury that stimulates and then damages sensory endings. Two distinct phases of nociceptive response are associated with the immediate activation of nociceptors and sensitization of spinal reflex circuits during phase I and II responses, respectively.[51]
The procedure used was essentially the same as that described previously.[86],[87] Briefly, 20 μL of 1.5% formalin solution was injected intraplantarly (i.pl.) into the mice right hind paw using a 26-gauge needle. […] The total time (in seconds) spent on licking the injected paw during periods of 0–5 min (early phase, neurogenic) and 15–30 min (late phase, inflammatory) was measured and was considered as an indicator of nociceptive behavior. Before formalin injection, different groups of mice were treated i.p. with the vehicle (10 mL/kg, negative control) and the varying doses of 12 (5, 10, 15, and 30 mg/kg).

T3 sequence (P25021 whole entry): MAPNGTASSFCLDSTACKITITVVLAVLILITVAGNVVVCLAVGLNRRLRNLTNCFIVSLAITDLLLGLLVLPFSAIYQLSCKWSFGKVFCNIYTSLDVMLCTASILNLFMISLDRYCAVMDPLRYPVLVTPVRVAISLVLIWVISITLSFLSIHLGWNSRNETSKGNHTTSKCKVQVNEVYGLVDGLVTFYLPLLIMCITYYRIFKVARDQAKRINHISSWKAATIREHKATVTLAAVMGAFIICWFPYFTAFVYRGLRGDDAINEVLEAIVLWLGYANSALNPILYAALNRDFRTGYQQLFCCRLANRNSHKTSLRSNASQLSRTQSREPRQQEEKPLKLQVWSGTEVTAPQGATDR
T4 sequence (Q9H3N8 whole entry): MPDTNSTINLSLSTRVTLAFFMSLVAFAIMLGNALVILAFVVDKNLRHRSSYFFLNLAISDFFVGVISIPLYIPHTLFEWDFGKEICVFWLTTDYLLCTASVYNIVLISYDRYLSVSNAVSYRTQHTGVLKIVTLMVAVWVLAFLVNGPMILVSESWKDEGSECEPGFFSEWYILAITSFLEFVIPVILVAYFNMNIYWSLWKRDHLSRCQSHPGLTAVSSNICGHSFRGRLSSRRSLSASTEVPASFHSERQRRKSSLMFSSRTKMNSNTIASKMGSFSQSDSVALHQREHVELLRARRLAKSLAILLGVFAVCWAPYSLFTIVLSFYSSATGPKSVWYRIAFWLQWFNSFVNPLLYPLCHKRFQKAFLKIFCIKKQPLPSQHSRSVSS
T1 sequence (P35367 whole entry): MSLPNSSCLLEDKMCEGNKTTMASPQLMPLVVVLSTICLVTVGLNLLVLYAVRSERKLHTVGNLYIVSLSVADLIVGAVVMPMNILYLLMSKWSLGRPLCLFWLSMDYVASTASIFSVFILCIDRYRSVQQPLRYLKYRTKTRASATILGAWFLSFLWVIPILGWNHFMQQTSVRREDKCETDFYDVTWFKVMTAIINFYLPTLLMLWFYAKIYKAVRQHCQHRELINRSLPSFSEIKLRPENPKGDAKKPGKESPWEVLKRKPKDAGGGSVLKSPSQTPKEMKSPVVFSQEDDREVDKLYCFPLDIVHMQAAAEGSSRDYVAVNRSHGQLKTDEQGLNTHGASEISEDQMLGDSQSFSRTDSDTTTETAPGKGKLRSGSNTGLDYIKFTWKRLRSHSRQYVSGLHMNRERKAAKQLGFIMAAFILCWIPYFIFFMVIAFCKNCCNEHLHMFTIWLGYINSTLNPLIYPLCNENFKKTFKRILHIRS

N#Cc1ccc(-c2ccc(OCCCN3CCC(c4ccncc4)CC3)cc2)cc1 [Compound 12, 4′-(3-(4-(Pyridin-4-yl)piperidin-1-yl)propoxy)-[1,1′-biphenyl]-4-carbonitrile Oxalate]
Ki [1]: 653 nM
Ki [2]: 10 nM
Ki [3]: > 10000 nM
effect on contralateral paw, von Frey test ([4]; 15 mg/kg, 30 and 180 min): reduced the withdrawal threshold 30 and 180 min after injection, although this effect was not statistically significant
effect on contralateral paw, von Frey test ([4]; 15 mg/kg, 90 min): significant effect (p = 0.0056)
effect on contralateral paw, von Frey test ([4]; 5 and 10 mg/kg, all time points): no effects of compound 12 (for doses 5 and 10 mg/kg) on tactile allodynia
analgesic effect, von Frey test, ipsilateral paw ([4]; 90 and 180 min after i.p. injection): only at a dose of 10 mg/kg increased the withdrawal thresholds
analgesic effect, von Frey test, ipsilateral paw ([4]; 30 min after i.p. injection, 5, 10, 15 mg/kg, day 14 after CCI): significant analgesic effects 30 min after injection of 5 (p < 0.0001) and 10 mg/kg (p = 0.0201)
Ki [5]: > 10000 nM
effect on nociceptive response in capsaicin test ([6]; 10, 15 and 30 mg/kg): significantly decreased the paw licking or biting behavior
ED50 ([6]; Mus musculus, 5 min, 5 min after intraplantar capsaicin, read-out: ED50, capsaicin test): 10.3 mg/kg
ED50 ([7]; 0–5 min after formalin, read-out: ED50, formalin test phase I (acute phase)): 6.17 mg/kg
ED50 ([7]; 15–30 min after formalin, read-out: ED50, formalin test phase II (late phase)): 12.3 mg/kg
